For five molecules, IC50 results are on record in patent US7205327B2, “Imidazole and benzimidazole caspase inhibitors and uses thereof” (Vertex Pharmaceuticals Incorporated, priority 2000, dated 2007).

As usually defined, the IC50 is the concentration that gives 50% inhibition. The low end stands for greater potency in that assay, the high end for weaker potency in that assay.

In the assay the test system is FAS induced apoptosis. Put plainly: Anti-fas induced apoptosis assay. It counts as cell-based. An excerpt: Anti-fas Induced Apoptosis Assay
Cellular apoptosis may be induced by the binding of Fas ligand (FasL) to its receptor, CD95 (Fas). Conditions for an assay to measure the effect of compounds on the inhibition of the caspase-8-mediated apoptotic pathway may be found in WO0142216.

Where a name gives a salt, the structure may show the parent alone.

`C[C@H](NC(=O)c1nc2ccccc2[nH]1)C(=O)NC(CC(=O)O)C(=O)CF` (stereo partly drawn) [Compound 2, [3S/R, (2S)]-3-{2-[(1H-Benzoimidazole-2-carbonyl)-amino]-propionylamino}-5-fluoro-4-oxo-pentanoic acid, trifluoroacetate salt] had a 50% inhibitory concentration (IC50) of less than 200 nM.
The value for `CC[C@H](NC(=O)c1ncc[nH]1)C(=O)NC(CC(=O)O)C(=O)CF` (stereo partly drawn) [Compound 3, [3S/R,(2S)]-5-Fluoro-3-{2-[(1H-imidazole-2-carbonyl)-amino]-butyrylamino}-4-oxo-pentanoic acid, trifluoroacetate salt] was less than 200 nM; that for `CC(C)[C@H](NC(=O)c1ncc[nH]1)C(=O)NC(CC(=O)O)C(=O)CF` (stereo partly drawn) [Compound 4, [3S/R,(2S)]-5-Fluoro-3-{2-[(1H-imidazole-2-carbonyl)-amino]-3-methylbutyrylamino}-4-oxo-pentanoic acid] was less than 200 nM.
The value for `C[C@H](NC(=O)c1ncc[nH]1)C(=O)NC(CC(=O)O)C(=O)CF` (stereo partly drawn) [Compound 1, [3S/R,(2S)]-5-Fluoro-3-{2-[(1H-imidazole-2-carbonyl)-amino]-propionylamino}-4-oxo-pentanoic acid, trifluoroacetate salt] was less than 200 nM; that for `CC(C)[C@H](NC(=O)c1nc2ccccc2[nH]1)C(=O)NC(CC(=O)O)C(=O)CF` (stereo partly drawn) [Compound 5, [3S/R, (2S)]-3-{2-[(1H-Benzoimidazole-2-carbonyl)-amino]-3-methylbutyrylamino}-5-fluoro-4-oxo-pentanoic acid] was less than 200 nM.
